Source: ChEMBL document CHEMBL5357082, “Identification and Optimization of Small Molecule Pyrazolopyrimidine TLR7 Agonists for Applications in Immuno-oncology” (ACS Med Chem Lett, 2024)
Active and inactive are the calls of the source. The rule behind the calls is not given here.

Experiments:
Cytochrome P450 2C19 = Cytochrome P450 2C19 (Homo sapiens, UniProt P33261); test: Inhibition of CYP2C19 (unknown origin); assay type: ADME
Cytochrome P450 1A2 = target: T1, Cytochrome P450 1A2 (Homo sapiens, UniProt P05177); test: Inhibition of CYP1A2 (unknown origin); assay type: ADME
T1 sequence (P05177 whole entry): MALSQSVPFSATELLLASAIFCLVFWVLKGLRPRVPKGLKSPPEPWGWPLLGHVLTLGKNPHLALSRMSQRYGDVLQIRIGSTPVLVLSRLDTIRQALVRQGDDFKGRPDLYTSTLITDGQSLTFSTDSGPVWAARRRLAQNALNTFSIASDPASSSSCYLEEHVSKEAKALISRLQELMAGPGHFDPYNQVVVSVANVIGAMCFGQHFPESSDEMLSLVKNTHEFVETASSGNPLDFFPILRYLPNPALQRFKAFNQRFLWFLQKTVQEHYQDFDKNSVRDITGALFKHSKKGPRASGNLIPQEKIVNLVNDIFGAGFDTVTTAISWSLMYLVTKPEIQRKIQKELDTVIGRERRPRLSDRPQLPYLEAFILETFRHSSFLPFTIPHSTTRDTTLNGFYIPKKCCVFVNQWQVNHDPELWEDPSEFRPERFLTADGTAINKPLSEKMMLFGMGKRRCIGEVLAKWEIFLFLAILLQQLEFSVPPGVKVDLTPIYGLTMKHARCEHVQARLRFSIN

[1] = Metabolic stability in mouse liver microsomes assessed as compound remaining at 0.5 uM incubated for 10 mins in presence of NADPH by UV absorbance based assay; assay type: ADME, Microsome; details: read-out: Stability
Cytochrome P450 3A4 [2] = target: T2, Cytochrome P450 3A4 (Homo sapiens, UniProt P08684); test: Inhibition of CYP3A4 (unknown origin) using BFC as substrate preincubated with compound followed by substrate addition at 30 mins; assay type: ADME
T2 sequence (P08684 whole entry): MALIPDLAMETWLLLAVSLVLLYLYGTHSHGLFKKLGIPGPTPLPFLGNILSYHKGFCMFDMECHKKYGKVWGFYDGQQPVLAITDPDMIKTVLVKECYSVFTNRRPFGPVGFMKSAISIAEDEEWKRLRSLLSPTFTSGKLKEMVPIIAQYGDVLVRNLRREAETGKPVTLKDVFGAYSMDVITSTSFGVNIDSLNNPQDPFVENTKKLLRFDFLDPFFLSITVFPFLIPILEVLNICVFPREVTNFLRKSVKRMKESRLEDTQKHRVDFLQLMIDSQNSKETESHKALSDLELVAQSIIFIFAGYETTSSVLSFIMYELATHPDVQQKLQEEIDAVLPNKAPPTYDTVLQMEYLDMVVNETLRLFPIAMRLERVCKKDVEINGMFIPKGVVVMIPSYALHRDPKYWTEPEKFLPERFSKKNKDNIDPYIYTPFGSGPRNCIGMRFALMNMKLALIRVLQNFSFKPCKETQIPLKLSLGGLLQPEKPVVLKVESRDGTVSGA

Cytochrome P450 3A4 [3] = target: T2, Cytochrome P450 3A4; test: Inhibition of CYP3A4 (unknown origin) using BFC as substrate; assay type: ADME
Toll-like receptor 7 [4] = target: T3, Toll-like receptor 7 (Homo sapiens, UniProt Q9NYK1); test: Agonist activity at human TLR7 in HEK-Blue hTLR7 cells harboring SEAP reporter transgene incubated for 18 hrs by quanti-blue reagent based assay; assay type: cell-based
T3 sequence (Q9NYK1 whole entry): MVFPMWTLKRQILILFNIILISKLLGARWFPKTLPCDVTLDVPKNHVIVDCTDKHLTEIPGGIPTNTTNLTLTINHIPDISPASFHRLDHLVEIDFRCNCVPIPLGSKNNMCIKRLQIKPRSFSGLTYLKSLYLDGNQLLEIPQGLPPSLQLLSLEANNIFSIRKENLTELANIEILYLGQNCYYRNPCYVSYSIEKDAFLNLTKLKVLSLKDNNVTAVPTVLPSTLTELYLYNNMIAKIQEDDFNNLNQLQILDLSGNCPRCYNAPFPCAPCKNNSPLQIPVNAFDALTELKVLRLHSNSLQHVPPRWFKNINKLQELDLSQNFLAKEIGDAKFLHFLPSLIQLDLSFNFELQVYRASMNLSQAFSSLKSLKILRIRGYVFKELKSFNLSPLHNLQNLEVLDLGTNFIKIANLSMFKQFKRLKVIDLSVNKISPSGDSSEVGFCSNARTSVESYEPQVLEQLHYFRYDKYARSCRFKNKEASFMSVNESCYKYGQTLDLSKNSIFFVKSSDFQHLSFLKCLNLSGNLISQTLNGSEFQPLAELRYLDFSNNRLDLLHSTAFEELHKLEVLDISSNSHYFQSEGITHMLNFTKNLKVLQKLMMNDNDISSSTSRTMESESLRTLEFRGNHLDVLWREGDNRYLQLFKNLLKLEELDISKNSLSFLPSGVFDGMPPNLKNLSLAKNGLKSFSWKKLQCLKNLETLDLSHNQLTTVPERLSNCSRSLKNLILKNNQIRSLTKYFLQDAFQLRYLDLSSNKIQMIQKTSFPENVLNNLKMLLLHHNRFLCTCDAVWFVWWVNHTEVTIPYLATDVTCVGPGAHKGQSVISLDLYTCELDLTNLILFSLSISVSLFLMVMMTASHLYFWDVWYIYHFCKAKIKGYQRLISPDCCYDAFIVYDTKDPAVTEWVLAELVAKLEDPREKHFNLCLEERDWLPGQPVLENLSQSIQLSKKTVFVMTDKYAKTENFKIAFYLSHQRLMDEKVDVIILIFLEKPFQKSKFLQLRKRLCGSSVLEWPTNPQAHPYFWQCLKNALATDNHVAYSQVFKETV

Cytochrome P450 2C8 = target: T4, Cytochrome P450 2C8 (Homo sapiens, UniProt P10632); test: Inhibition of CYP2C8 (unknown origin); assay type: ADME
T4 sequence (P10632 whole entry): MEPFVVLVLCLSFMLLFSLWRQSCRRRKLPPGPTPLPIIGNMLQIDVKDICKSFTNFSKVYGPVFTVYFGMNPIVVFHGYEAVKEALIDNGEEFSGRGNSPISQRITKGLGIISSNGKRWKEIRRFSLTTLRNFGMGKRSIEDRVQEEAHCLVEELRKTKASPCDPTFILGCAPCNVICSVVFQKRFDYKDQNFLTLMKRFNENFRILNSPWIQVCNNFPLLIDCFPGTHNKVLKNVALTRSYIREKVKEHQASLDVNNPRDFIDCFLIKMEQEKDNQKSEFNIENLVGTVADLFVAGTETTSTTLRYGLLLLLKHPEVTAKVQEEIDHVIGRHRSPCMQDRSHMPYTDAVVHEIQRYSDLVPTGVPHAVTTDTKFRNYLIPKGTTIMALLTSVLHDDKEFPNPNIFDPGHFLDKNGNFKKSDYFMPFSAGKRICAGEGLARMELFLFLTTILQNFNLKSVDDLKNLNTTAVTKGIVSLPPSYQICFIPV

Cytochrome P450 2C9 = Cytochrome P450 2C9 (Homo sapiens, UniProt P11712); test: Inhibition of CYP2C9 (unknown origin); assay type: ADME
Chain of Cytochrome P450 2C9 (P11712 whole entry): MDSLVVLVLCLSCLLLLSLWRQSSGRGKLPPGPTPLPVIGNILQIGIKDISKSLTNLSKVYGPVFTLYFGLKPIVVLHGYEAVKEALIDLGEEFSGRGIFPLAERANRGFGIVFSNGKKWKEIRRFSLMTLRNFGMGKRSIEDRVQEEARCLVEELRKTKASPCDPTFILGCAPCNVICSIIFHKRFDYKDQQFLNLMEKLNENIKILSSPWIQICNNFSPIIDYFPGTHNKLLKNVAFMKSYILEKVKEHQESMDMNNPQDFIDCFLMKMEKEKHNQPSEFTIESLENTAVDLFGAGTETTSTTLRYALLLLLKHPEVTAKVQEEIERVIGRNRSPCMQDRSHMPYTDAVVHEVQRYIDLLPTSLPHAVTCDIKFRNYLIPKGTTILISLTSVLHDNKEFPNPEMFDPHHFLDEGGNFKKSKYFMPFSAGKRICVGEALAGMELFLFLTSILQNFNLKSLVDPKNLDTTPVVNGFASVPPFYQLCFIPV

Toll-like receptor 7 [5] = target: T5, Toll-like receptor 7 (Mus musculus, UniProt P58681); test: (§1) Agonist activity at mouse TLR7
T5 sequence (P58681 whole entry): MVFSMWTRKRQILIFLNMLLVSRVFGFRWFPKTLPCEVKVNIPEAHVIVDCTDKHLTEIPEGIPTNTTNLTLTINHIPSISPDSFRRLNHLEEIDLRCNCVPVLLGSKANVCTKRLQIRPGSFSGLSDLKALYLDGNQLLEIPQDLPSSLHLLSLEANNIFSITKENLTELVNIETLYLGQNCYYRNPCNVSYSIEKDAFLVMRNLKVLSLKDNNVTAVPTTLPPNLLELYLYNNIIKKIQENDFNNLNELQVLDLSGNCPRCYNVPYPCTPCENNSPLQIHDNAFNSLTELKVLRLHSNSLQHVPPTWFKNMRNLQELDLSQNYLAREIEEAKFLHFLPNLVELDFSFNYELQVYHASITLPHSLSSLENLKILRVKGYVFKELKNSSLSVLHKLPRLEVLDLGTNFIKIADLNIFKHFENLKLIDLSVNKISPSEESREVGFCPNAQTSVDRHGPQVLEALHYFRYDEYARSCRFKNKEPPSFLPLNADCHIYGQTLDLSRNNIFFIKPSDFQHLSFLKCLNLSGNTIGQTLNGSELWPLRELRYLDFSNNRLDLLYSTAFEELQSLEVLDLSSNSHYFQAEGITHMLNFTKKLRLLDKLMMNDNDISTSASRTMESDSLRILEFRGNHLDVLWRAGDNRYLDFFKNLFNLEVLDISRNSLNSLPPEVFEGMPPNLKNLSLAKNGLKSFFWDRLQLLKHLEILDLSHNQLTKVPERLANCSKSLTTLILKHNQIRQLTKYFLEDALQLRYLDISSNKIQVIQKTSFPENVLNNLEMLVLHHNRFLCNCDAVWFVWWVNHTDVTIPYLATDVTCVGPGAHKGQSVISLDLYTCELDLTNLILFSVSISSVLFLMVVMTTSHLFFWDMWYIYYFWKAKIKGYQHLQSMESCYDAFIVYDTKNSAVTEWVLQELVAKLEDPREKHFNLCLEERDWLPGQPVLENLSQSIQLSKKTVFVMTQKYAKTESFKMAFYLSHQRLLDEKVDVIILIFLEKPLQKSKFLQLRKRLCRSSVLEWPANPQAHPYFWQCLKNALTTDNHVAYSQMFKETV

Cytochrome P450 2D6 = Cytochrome P450 2D6 (Homo sapiens, UniProt P10635); test: Inhibition of CYP2D6 (unknown origin); assay type: ADME
Chain of Cytochrome P450 2D6 (P10635 whole entry): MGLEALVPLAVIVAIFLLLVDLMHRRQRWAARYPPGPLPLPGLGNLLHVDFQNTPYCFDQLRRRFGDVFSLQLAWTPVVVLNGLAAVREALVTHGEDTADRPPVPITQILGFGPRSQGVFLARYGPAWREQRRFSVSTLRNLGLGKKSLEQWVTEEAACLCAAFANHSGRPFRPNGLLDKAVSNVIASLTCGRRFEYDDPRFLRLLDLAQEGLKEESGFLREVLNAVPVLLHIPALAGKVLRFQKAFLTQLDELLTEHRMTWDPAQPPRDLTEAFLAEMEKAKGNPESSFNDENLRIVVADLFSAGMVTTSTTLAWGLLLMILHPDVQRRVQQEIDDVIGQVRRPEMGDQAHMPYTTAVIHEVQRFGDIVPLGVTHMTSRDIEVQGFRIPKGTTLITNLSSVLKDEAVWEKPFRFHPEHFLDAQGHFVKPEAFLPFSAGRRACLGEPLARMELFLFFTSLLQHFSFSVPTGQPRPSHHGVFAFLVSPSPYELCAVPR

[6] = Cytotoxicity against PHA-activated T-cells (unknown origin) assessed as inhibition of IL-2 induced cell proliferation measured after 72 hrs by MTS assay; assay type: toxicity, cell-based
Cytochrome P450 3A4 [7] = target: T2, Cytochrome P450 3A4; test: Inhibition of CYP3A4 (unknown origin) using BFC as substrate preincubated with compound followed by substrate addition at 5 mins; assay type: ADME
[8] = target: Voltage-gated inwardly rectifying potassium channel KCNH2 (Homo sapiens, UniProt Q12809); test: Inhibition of hERG; assay type: toxicity; details: for inhibition (INH): human
Chain of Voltage-gated inwardly rectifying potassium channel KCNH2 (Q12809 whole entry): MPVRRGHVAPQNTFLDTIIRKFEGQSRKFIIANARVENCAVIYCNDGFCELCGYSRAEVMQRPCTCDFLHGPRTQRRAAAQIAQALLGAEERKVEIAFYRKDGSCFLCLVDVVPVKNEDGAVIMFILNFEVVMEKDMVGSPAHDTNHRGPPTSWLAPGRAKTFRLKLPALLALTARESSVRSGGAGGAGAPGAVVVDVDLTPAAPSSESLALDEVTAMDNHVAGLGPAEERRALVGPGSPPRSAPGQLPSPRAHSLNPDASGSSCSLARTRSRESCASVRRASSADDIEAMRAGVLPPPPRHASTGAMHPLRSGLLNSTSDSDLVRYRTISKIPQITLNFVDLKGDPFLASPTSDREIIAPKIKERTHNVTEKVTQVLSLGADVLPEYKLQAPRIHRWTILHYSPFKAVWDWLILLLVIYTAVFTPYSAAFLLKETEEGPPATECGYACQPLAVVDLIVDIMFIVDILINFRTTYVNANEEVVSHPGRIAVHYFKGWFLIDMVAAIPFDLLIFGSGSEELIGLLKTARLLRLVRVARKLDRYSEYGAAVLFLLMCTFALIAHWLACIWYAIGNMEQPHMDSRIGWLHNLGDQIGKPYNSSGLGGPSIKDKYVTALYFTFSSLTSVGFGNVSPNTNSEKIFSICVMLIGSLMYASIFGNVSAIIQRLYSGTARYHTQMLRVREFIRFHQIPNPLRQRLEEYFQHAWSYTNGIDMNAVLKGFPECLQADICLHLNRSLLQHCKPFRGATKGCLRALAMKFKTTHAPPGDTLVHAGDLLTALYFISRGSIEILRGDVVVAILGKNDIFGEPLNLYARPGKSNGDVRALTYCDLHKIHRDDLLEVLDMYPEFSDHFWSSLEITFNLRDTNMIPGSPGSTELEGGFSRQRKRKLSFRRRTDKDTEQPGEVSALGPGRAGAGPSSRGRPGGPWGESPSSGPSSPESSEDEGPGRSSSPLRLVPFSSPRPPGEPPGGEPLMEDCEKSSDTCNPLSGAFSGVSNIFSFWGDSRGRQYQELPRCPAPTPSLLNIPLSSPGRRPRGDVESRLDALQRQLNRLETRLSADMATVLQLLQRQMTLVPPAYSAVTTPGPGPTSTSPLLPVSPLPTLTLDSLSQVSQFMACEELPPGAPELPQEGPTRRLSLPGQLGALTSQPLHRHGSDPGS

[9] = Metabolic stability in human liver microsomes assessed as compound remaining at 0.5 uM incubated for 10 mins in presence of NADPH by UV absorbance based assay; assay type: ADME, Microsome; details: read-out: Stability
[10] = target: T6, Toll-like receptor 7 (Mus musculus) (UniProt P58681); test: as §1
T6 sequence (whole entry): T5 sequence (P58681 whole entry)

Chain of Cytochrome P450 2C19 (P33261 whole entry): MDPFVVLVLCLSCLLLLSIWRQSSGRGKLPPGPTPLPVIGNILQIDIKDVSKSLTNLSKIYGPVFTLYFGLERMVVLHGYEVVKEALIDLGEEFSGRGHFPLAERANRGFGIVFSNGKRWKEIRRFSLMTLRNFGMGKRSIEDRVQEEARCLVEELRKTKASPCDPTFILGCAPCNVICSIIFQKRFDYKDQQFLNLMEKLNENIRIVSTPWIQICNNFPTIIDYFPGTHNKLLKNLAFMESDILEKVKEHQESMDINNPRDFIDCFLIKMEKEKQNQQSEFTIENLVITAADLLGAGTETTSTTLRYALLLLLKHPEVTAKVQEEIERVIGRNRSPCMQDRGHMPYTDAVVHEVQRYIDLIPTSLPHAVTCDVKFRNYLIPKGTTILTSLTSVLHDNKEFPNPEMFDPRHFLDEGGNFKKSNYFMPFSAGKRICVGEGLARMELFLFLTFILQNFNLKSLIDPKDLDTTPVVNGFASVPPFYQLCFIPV

SMILES	IC50 (Cytochrome P450 2C19) [µM]	IC50 (Cytochrome P450 1A2) [µM]	remaining at 10 min, 0.5 µM [1] [%]	IC50 (Cytochrome P450 3A4 [2]) [µM]	IC50 (Cytochrome P450 3A4 [3]) [µM]	EC50 (Toll-like receptor 7 [4]) [µM]	IC50 (Cytochrome P450 2C8) [µM]	IC50 (Cytochrome P450 2C9) [µM]	EC50 (Toll-like receptor 7 [5]) [µM]	IC50 (Cytochrome P450 2D6) [µM]	IC50 (Cytochrome P450 3A4 [7]) [µM]	remaining at 10 min, 0.5 µM [9] [%]	Activity [10]	IC50 at 72 h [6] [µM]	IC50 [8] [µM]	inhibition (INH) [8]
CCCCNc1nc(N)nc2cnn(Cc3ccc(N4CCNCC4)cc3OC)c12	> 20	> 20	5	> 20	> 20	0.78	> 20	> 20	1.95	> 20	> 20	100		20		Not Active
CCC[C@@H](CCO)Nc1nc(N)nc2cnn(Cc3ncc(C4CCN(C5CCNCC5)CC4)cc3OC)c12	> 20	> 20	100	> 20	> 20		> 20	> 20		> 20	> 20	100	inactive	> 25	32.6	
CCC[C@@H](CCO)Nc1nc(N)nc2cnn(Cc3ncc(C4CCN(CCO)CC4)cc3OC)c12	> 20	> 20	100	> 20	> 20	0.049	> 20	> 20	0.124	> 20	> 20	93		> 25	> 50	
CCC[C@@H](CCO)Nc1nc(N)nc2cnn(Cc3ncc(C4CCC5(CC4)CN(C(C)C)C5)cc3OC)c12	> 20	> 20	87	> 20	> 20	0.021	> 20	> 20	0.048	> 20	> 20	88		> 25	13	
CCC[C@@H](CCO)Nc1nc(N)nc2cnn(Cc3ncc(C4CC5(C4)CN(C4CCOCC4)C5)cc3OC)c12	> 20	> 20	66	> 20	> 20	0.37	> 20	> 20	0.148	> 20	> 20	77		> 25	> 50	
CCC[C@@H](CCO)Nc1nc(N)nc2cnn(Cc3ncc(C4CCC5(CC4)CN(C4CCOCC4)C5)cc3OC)c12	> 20	> 20	50	> 20	> 20	0.012	> 20	> 20	0.029	> 20	> 20	57		18		Not Active

The next lines start with results.

IC50 (Cytochrome P450 2C19) [µM]	IC50 (Cytochrome P450 1A2) [µM]	remaining at 10 min, 0.5 µM [1] [%]	IC50 (Cytochrome P450 3A4 [2]) [µM]	IC50 (Cytochrome P450 3A4 [3]) [µM]	EC50 (Toll-like receptor 7 [4]) [µM]	IC50 (Cytochrome P450 2C8) [µM]	IC50 (Cytochrome P450 2C9) [µM]	EC50 (Toll-like receptor 7 [5]) [µM]	IC50 (Cytochrome P450 2D6) [µM]	IC50 (Cytochrome P450 3A4 [7]) [µM]	remaining at 10 min, 0.5 µM [9] [%]	Activity [10]	SMILES	IC50 at 72 h [6] [µM]	IC50 [8] [µM]	inhibition (INH) [8]
> 20	> 20	97	> 20	> 20	0.084	> 20	> 20	0.984	> 20	> 20	100		CCCCNc1nc(N)nc2cnn(Cc3ncc(C4CCNCC4)cc3OC)c12	> 25	19	
> 14	> 14	44	> 14	> 14	0.133	> 14	> 14	0.177	> 14	> 14	100		CCC[C@@H](CCO)Nc1nc(N)nc2cnn(Cc3ncc(C4CCC5(CC4)CNC5)cc3OC)c12	> 25	14	
> 17	> 17	100	> 17	> 17	0.37	> 17	> 17	1.6	> 17	> 17	87		CCC[C@@H](CCO)Nc1nc(N)nc2cnn(Cc3ncc(C4CC5(CNC5)C4)cc3OC)c12	> 25	> 50	
